Laboratory results: patent EP4534577A1, “NON-TOXIC LATENT POLYMERIZATION CATALYSTS FOR POLYURETHANES BASED ON TIN (IV) CHELATE COMPLEXES” (Tech Synt Ltd, priority 2023, dated 2025)

Assays:
[1] = Gelation time in polyurethane synthesis model reaction with tin catalyst; details: for Catalyst effect 65°C: gel time with no catalyst (2580 seconds) divided by gel time with 0.5 mol % of the catalyst; for Catalyst effect 90C: gel time with no catalyst (750 seconds) divided by gel time with 0.5 mol % of the catalyst; for Latency: latent if gelation did not occur at room temperature for two hours at a catalyst concentration of 1 mol%; for Gelation time In argon t, s (65ºC) / Gelation time On air t, s (65ºC): 65 °C; for Gelation time In argon t, s (90ºC) / Gelation time On air t, s (90ºC): 90 °C
Experimental: A method for using the above-mentioned tin(IV) complexes to produce polyurethane is described in the following. The method consists of adding a solution of the above-mentioned catalyst in an organic solvent (THF) to a two-component mixture at a given temperature. The method is explained by examples of its implementation: Specifically, to a vigorously stirred solution of 4.5 ml (5.1 g, 8.4 mmol) polyethyleneglycol-600 1.35 ml (1.40 g, 8.3 mmol), hexamethylene diisocyanate was added (temperature control was performed by thermostating the reaction mixture at room temperature, 65°C, 90°C before adding the catalyst), and then the solution of the catalyst to be tested in 0.25 ml in THF was added as fast as possible. The flask with the reactants then was put into an oil bath at room temperature, 65°C or 90°C (depending on the experiment), and then time count was started. The end of reaction was defined as the stop of the magnetic stirrer. The time from start to stop is taken as the gelation time. Experiments conducted in air and in an inert gas atmosphere at different temperatures were compared.
The molar concentration of the catalyst is given with respect to the molar amount of the polyisocyanate. Table 1: Gelation time with selected tin catalysts.

[2] = Solubility of catalyst in organic solvents; assay type: physicochemical
[3] = Stability in ambient / moist air (visible change of powder on dry surface); assay type: physicochemical; details: for Air stability: powder poured onto a dry surface, left in ambient air
Source text: (§1) The alkoxy-based tin complexes (DMAE)2Sn(OtBu)2 and (DMAEIDE)Sn(OtBu)2 were obtained using procedures similar to the synthesis of the phenoxy-complexes. These complexes are stable under dry conditions.
(§2) Of special stability are complexes based on tetradentate Salen and Salan type ligands such as: […]

[4] = Stability on dissolution in wet organic solvent; assay type: physicochemical; details: wet / moist organic solvent
Source text: as §1, §2

SMILES | Catalyst effect 65°C [1] | Catalyst effect 90C [1] | Latency [1] | Solubility Alkanes [2] | Solubility CH2Cl2/CHCl3 [2] | Solubility PhMe [2] | Solubility THF [2] | Air stability [3] | Decomposition on dissolution in wet organic solvent [4] | gel time compared with no catalyst ([1]; 0.1 mol% concentration, under air) | Gelation time In argon t, s (65ºC) ([1]; c 0.1 % mol.) [s] | Gelation time In argon t, s (90ºC) ([1]; c 0.1 % mol.) [s] | Gelation time On air t, s (65ºC) ([1]; c 0.1 % mol.) [s] | Gelation time On air t, s (90ºC) ([1]; c 0.1 % mol.) [s] | Gelation time In argon t, s (65ºC) ([1]; c 1 % mol.) [s] | Gelation time In argon t, s (90ºC) ([1]; c 1 % mol.) [s] | Gelation time On air t, s (65ºC) ([1]; c 1 % mol.) [s] | Gelation time On air t, s (90ºC) ([1]; c 1 % mol.) [s] | Hygroscopicity [3] | Visible change of powder in moist air ([3]; powder poured on a dry surface in moist air)
CC(C)(C)[O][Sn]1([O]C(C)(C)C)[O]c2c(cc(C(C)(C)C)cc2C(C)(C)C)CN2CCN(CC2)Cc2cc(C(C)(C)C)cc(C(C)(C)C)c2[O]1 | 5.7 | 2.8 | yes | +- (less than 0.01 mol/L) | +++ (higher than 1.0 mol/L) | +++ (higher than 1.0 mol/L) | ++ (between 0.1 and 1.0) | excellent (Excellent stability was attributed to compounds for which no visible change was found within 24 hours) |  |  |  |  |  |  |  |  |  |  |  | 
CN1Cc2cc(C(C)(C)C)cc(C(C)(C)C)c2[O][Sn]2([O]c3c(cc(C(C)(C)C)cc3C(C)(C)C)C1)[O]c1c(cc(C(C)(C)C)cc1C(C)(C)C)CN(C)Cc1cc(C(C)(C)C)cc(C(C)(C)C)c1[O]2 | 2.4 | 3.8 | yes | ++ (between 0.1 and 1.0) | +++ (higher than 1.0 mol/L) | +++ (higher than 1.0 mol/L) | +++ (higher than 1.0 mol/L) | good (If there was no visible change within an hour, such as discoloration or melting into droplets due to hygroscopicity, then the stability of the compound was considered good) |  |  |  |  |  |  |  |  |  |  |  | 
CN(C)CC[O][Sn]([O]CCN(C)C)([O]C(C)(C)C)[O]C(C)(C)C [(DMAE)2Sn(OtBu)2, reference compound] |  |  |  |  |  |  |  |  | instantly leads to the decomposition | the same as for no catalyst | 410 | 185 | 2580 | 750 | 230 | 150 | 540 | 280 | rather hygroscopic | change their appearance within half an hour
C1=NCC[O][Sn]2([O]CCN=Cc3ccccc3[O]2)[O]c2ccccc21 (stereo not drawn) | 12.3 | 6.3 | yes | +- (less than 0.01 mol/L) | +- (less than 0.01 mol/L) | + (between 0.01 and 0.1 mol/L) | + (between 0.01 and 0.1 mol/L) | good (If there was no visible change within an hour, such as discoloration or melting into droplets due to hygroscopicity, then the stability of the compound was considered good) |  |  |  |  |  |  |  |  |  |  |  | 
